# Experimental data: PubChem BioAssay (NCI)
#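 96-well plates; 48 h exposure; 5 concentrations. Endpoints by linear interpolation between flanking doses. Not reached: highest tested concentration assigned. GI50 is the concentration that inhibits growth by half. TGI is the concentration that stops growth completely.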
# Tests used:
# Experiment in all cases: DTP human tumour cell line panel, 48 h
# U251 CNS = test system: U251 CNS
# MALME-3M melanoma = test system: MALME-3M melanoma
# SF-268 CNS = test system: SF-268 CNS
# HOP-62 NSCLC = test system: HOP-62 NSCLC
# M14 melanoma = test system: M14 melanoma
# HCC-2998 colon = test system: HCC-2998 colon
# OVCAR-8 ovarian = test system: OVCAR-8 ovarian
# COLO 205 colon = test system: COLO 205 colon
# HT29 colon = test system: HT29 colon
# DMS 273 small cell lung = test system: DMS 273 small cell lung
SMILES,GI50 (U251 CNS),TGI (U251 CNS),GI50 (MALME-3M melanoma),TGI (MALME-3M melanoma),GI50 (SF-268 CNS),TGI (SF-268 CNS),GI50 (HOP-62 NSCLC),TGI (HOP-62 NSCLC),GI50 (M14 melanoma),TGI (M14 melanoma),GI50 (HCC-2998 colon),TGI (HCC-2998 colon),GI50 (OVCAR-8 ovarian),TGI (OVCAR-8 ovarian),GI50 (COLO 205 colon),TGI (COLO 205 colon),GI50 (HT29 colon),TGI (HT29 colon),TGI (DMS 273 small cell lung)
CS(=O)(=O)Nc1cc(-c2ccc3ncnc(Nc4ccc5c(cnn5Cc5ccc(F)cc5)c4)c3c2)cnc1Cl,1.41 µM,11.1 µM,0.441 µM,2.92 µM,0.819 µM,4.51 µM,1.53 µM,41.4 µM,2.33 µM,17 µM,1.41 µM,3.17 µM,3.02 µM,> 100 µM,1.96 µM,6.02 µM,1.92 µM,12.9 µM,–
CCC1CN2CCc3cc(OC)c(OC)cc3C2CC1CC1c2cc(OC)c(OC)cc2CCN1C(=O)CNC(=O)OC(C)(C)C (stereo unspecified),–,> 100 µM,–,39.6 µM,–,70.3 µM,–,–,–,–,–,12.3 µM,–,> 100 µM,–,12.7 µM,–,> 100 µM,37.8 µM
COc1ccc2c(c1)nc(N)c1c3cccnc3cn21,0.0474 µM,14.6 µM,0.153 µM,25.7 µM,0.0917 µM,76.9 µM,0.273 µM,> 78.9 µM,0.039 µM,27.9 µM,0.103 µM,17.5 µM,0.0898 µM,> 54.5 µM,0.0452 µM,0.668 µM,0.0351 µM,1.88 µM,–
C=C(C)CCC(C)N1CCC(N2CCC(C(=O)NCCc3ccccc3)CC2)CC1 (stereo unspecified),14.4 µM,33 µM,11.8 µM,26.9 µM,98 µM,> 100 µM,68.9 µM,> 100 µM,15.4 µM,31.1 µM,37.9 µM,> 100 µM,27.8 µM,> 100 µM,13.4 µM,33.8 µM,22.1 µM,> 100 µM,–
C=C[C@]1(C)C=C2C(=O)[C@@]3(O)OC[C@@]4(CCCC(C)(C)C43O)C2(O)C(O)C1 (stereo partly specified),13.6 µM,28.1 µM,1.36 µM,3.02 µM,11.3 µM,23.9 µM,11.4 µM,24.7 µM,1.55 µM,3.01 µM,17.2 µM,31.5 µM,4.03 µM,15 µM,1.54 µM,3.08 µM,1.46 µM,> 21.5 µM,–
O=C(Cc1ccccc1)N/N=C(\C1=Nc2ccc([N+](=O)[O-])cc2NC1O)C(O)c1ccc([N+](=O)[O-])cc1 (stereo unspecified),–,> 100 µM,–,> 100 µM,–,> 100 µM,–,> 100 µM,–,> 100 µM,–,> 100 µM,–,> 100 µM,–,> 100 µM,–,> 100 µM,–
Clc1ccc2nc(Oc3ccccc3)cnc2c1,> 100 µM,> 100 µM,> 100 µM,> 100 µM,> 100 µM,> 100 µM,> 100 µM,> 100 µM,> 100 µM,> 100 µM,> 100 µM,> 100 µM,> 100 µM,> 100 µM,> 100 µM,> 100 µM,> 100 µM,> 100 µM,–
O=C(Nc1cc(Cl)c(Cl)cc1Cl)C(=O)C(C(=O)c1ccc(Cl)c(Cl)c1)C1OC(=O)c2ccccc21 (stereo unspecified),–,30.9 µM,–,–,–,41.8 µM,–,25.3 µM,–,27.7 µM,–,33.6 µM,–,28.5 µM,–,33.8 µM,–,39.3 µM,44.5 µM
